From PubChem BioAssay AID1918953 (Molecular Pharmacology Branch, DTP, NCI, 2023)
pIC50: −log10 of the molar value.

System: MDA-MB-231 complex spheroid viability
Experiment: Anticancer human tumor MDA-MB-231/ATCC cell line growth inhibition;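 note: drug exposure lasted 7 days starting on day 3 of spheroid growth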
Conditions: for pIC50: curve of first compound; for viability, T/C: stronger effect = lower value
Method in brief: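 Drug combinations with the LSD1 inhibitor iadademstat tested on tumor cells co-cultured as spheroids with endothelial cells and mesenchymal stem cells. Concentrations descended in half-log increments from clinical Cmax or 10 microM.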

[1] = second compound 0.1 µM, first compound 0.00316 µM
[2] = second compound 0.1 µM, first compound 0.01 µM
[3] = second compound 0.1 µM, first compound 0.0316 µM
[4] = second compound 0.1 µM, first compound 0.1 µM
[5] = second compound 0.316 µM, first compound 0.00316 µM
[6] = second compound 0.316 µM, first compound 0.01 µM
[7] = second compound 0.316 µM, first compound 0.0316 µM
[8] = second compound 0.316 µM, first compound 0.1 µM
[9] = second compound 1 µM, first compound 0.00316 µM
[10] = second compound 1 µM, first compound 0.01 µM
[11] = second compound 1 µM, first compound 0.0316 µM
[12] = second compound 1 µM, first compound 0.1 µM
[13] = second compound 3.16 µM, first compound 0.00316 µM
[14] = second compound 3.16 µM, first compound 0.01 µM
[15] = second compound 3.16 µM, first compound 0.0316 µM
[16] = second compound 3.16 µM, first compound 0.1 µM
[17] = second compound 10 µM, first compound 0.00316 µM
[18] = second compound 10 µM, first compound 0.01 µM
[19] = second compound 10 µM, first compound 0.0316 µM
[20] = second compound 10 µM, first compound 0.1 µM

For `COc1cc(Nc2ncc3c(n2)-c2ccc(Cl)cc2C(c2c(F)cccc2OC)=NC3)ccc1C(=O)O` + NC1CC1c1ccc(-c2cccc(O)c2)cc1, the pIC50 (second compound 0.1 µM) was greater than 8.50, the pIC50 (second compound 0.316 µM) was greater than 8.50 and the pIC50 (second compound 1 µM) was greater than 8.50. It also gave a pIC50 (second compound 3.16 µM) greater than 8.50, a pIC50 (second compound 10 µM) greater than 8.50 and a viability, T/C [1] of 43.8%. The viability, T/C [2] was 48.9%, the viability, T/C [3] was 43% and the viability, T/C [4] was 40.8%. It also gave a viability, T/C (second compound 0.1 µM, first compound 0.316 µM) of 32.4%, a viability, T/C (second compound 0.1 µM, first compound 1 µM) of 21.9% and a viability, T/C [5] of 40.7%. The viability, T/C [6] was 40%, the viability, T/C [7] was 38.5% and the viability, T/C [8] was 34.7%. For the same molecule, the viability, T/C (second compound 0.316 µM, first compound 0.316 µM) was 27.3%, the viability, T/C (second compound 0.316 µM, first compound 1 µM) was 21.4% and the viability, T/C [9] was 37.5%. The viability, T/C [10] was 39.9%, the viability, T/C [11] was 38.3% and the viability, T/C [12] was 38%. It also gave a viability, T/C (second compound 1 µM, first compound 0.316 µM) of 25.1%, a viability, T/C (second compound 1 µM, first compound 1 µM) of 18.6% and a viability, T/C [13] of 41.4%. For the same molecule, the viability, T/C [14] was 41.4%, the viability, T/C [15] was 41.1% and the viability, T/C [16] was 35%. The viability, T/C (second compound 3.16 µM, first compound 0.316 µM) was 28.1%, the viability, T/C (second compound 3.16 µM, first compound 1 µM) was 18.9% and the viability, T/C [17] was 30.7%. For the same molecule, the viability, T/C [18] was 33%, the viability, T/C [19] was 31.3% and the viability, T/C [20] was 31.1%. For the same molecule, the viability, T/C (second compound 10 µM, first compound 0.316 µM) was 22.4% and the viability, T/C (second compound 10 µM, first compound 1 µM) was 15.7%.
In the case of `Cn1ncnc1C1c2n[nH]c(=O)c3cc(F)cc(c23)NC1c1ccc(F)cc1` (stereo not given) + NC1CC1c1ccc(-c2cccc(O)c2)cc1, the pIC50 (second compound 0.1 µM) was less than 7.00, the pIC50 (second compound 0.316 µM) was 7.31 and the pIC50 (second compound 1 µM) was 7.32. It also gave a pIC50 (second compound 3.16 µM) of 7.29, a pIC50 (second compound 10 µM) of 9.32 and a viability, T/C (second compound 0.1 µM, first compound 0.000316 µM) of 86.3%. For the same molecule, the viability, T/C (second compound 0.1 µM, first compound 0.001 µM) was 87.6%, the viability, T/C [1] was 74.2% and the viability, T/C [2] was 77%. For the same molecule, the viability, T/C [3] was 62.4%, the viability, T/C [4] was 60.4% and the viability, T/C (second compound 0.316 µM, first compound 0.000316 µM) was 64.4%. The viability, T/C (second compound 0.316 µM, first compound 0.001 µM) was 61%, the viability, T/C [5] was 60.6% and the viability, T/C [6] was 57.1%. It also gave a viability, T/C [7] of 56.2%, a viability, T/C [8] of 42.7% and a viability, T/C (second compound 1 µM, first compound 0.000316 µM) of 62.4%. It also gave a viability, T/C (second compound 1 µM, first compound 0.001 µM) of 61.5%, a viability, T/C [9] of 57.2% and a viability, T/C [10] of 51.2%. The viability, T/C [11] was 53.5%, the viability, T/C [12] was 47.4% and the viability, T/C (second compound 3.16 µM, first compound 0.000316 µM) was 66.6%. For the same molecule, the viability, T/C (second compound 3.16 µM, first compound 0.001 µM) was 69.4%, the viability, T/C [13] was 67.4% and the viability, T/C [14] was 55.3%. For the same molecule, the viability, T/C [15] was 49.2%, the viability, T/C [16] was 48.7% and the viability, T/C (second compound 10 µM, first compound 0.000316 µM) was 51.9%. It also gave a viability, T/C (second compound 10 µM, first compound 0.001 µM) of 46.5%, a viability, T/C [17] of 43% and a viability, T/C [18] of 42.5%. It also gave a viability, T/C [19] of 33.1% and a viability, T/C [20] of 32.2%.
Molecule `NS(=O)(=O)OCC1CC(n2ccc3c(NC4CCc5ccccc54)ncnc32)CC1O` (stereo not given) + NC1CC1c1ccc(-c2cccc(O)c2)cc1 has a pIC50 (second compound 0.1 µM) of 7.08, a pIC50 (second compound 0.316 µM) of 7.12 and a pIC50 (second compound 1 µM) of 7.09. The pIC50 (second compound 3.16 µM) was 7.15, the pIC50 (second compound 10 µM) was 7.44 and the viability, T/C (second compound 0.1 µM, first compound 0.00949 µM) was 128%. For the same molecule, the viability, T/C (second compound 0.1 µM, first compound 0.03 µM) was 94.3%, the viability, T/C (second compound 0.1 µM, first compound 0.0949 µM) was 44.1% and the viability, T/C (second compound 0.1 µM, first compound 0.3 µM) was 28.6%. It also gave a viability, T/C (second compound 0.1 µM, first compound 0.949 µM) of 28.8%, a viability, T/C (second compound 0.1 µM, first compound 3 µM) of 27.9% and a viability, T/C (second compound 0.316 µM, first compound 0.00949 µM) of 118%. For the same molecule, the viability, T/C (second compound 0.316 µM, first compound 0.03 µM) was 93.5%, the viability, T/C (second compound 0.316 µM, first compound 0.0949 µM) was 39.1% and the viability, T/C (second compound 0.316 µM, first compound 0.3 µM) was 27.2%. For the same molecule, the viability, T/C (second compound 0.316 µM, first compound 0.949 µM) was 23.9%, the viability, T/C (second compound 0.316 µM, first compound 3 µM) was 27.8% and the viability, T/C (second compound 1 µM, first compound 0.00949 µM) was 114%. For the same molecule, the viability, T/C (second compound 1 µM, first compound 0.03 µM) was 90.1%, the viability, T/C (second compound 1 µM, first compound 0.0949 µM) was 44.2% and the viability, T/C (second compound 1 µM, first compound 0.3 µM) was 29.3%. The viability, T/C (second compound 1 µM, first compound 0.949 µM) was 25.6%, the viability, T/C (second compound 1 µM, first compound 3 µM) was 28.4% and the viability, T/C (second compound 3.16 µM, first compound 0.00949 µM) was 116%. The viability, T/C (second compound 3.16 µM, first compound 0.03 µM) was 78.9%, the viability, T/C (second compound 3.16 µM, first compound 0.0949 µM) was 40.8% and the viability, T/C (second compound 3.16 µM, first compound 0.3 µM) was 27%. The viability, T/C (second compound 3.16 µM, first compound 0.949 µM) was 30.4%, the viability, T/C (second compound 3.16 µM, first compound 3 µM) was 28.3% and the viability, T/C (second compound 10 µM, first compound 0.00949 µM) was 68.6%. For the same molecule, the viability, T/C (second compound 10 µM, first compound 0.03 µM) was 53.4%, the viability, T/C (second compound 10 µM, first compound 0.0949 µM) was 34.8% and the viability, T/C (second compound 10 µM, first compound 0.3 µM) was 27%. For the same molecule, the viability, T/C (second compound 10 µM, first compound 0.949 µM) was 26.3% and the viability, T/C (second compound 10 µM, first compound 3 µM) was 20.2%.
